# Literature values, collected in patent US20030013099A1, “Genes regulated by DNA methylation in colon tumors” (priority 2001, published 2003).
# What was measured:
# HT-29 cells [1] = settings: Aza treatment; inhibition parallels induction of IFN responsive genes; cited from earlier work
# HT-29 cells [2] = settings: cultured HT-29 cells, microarray experiments and other methods; cited from earlier work
smiles,measurement,setting,value
"Nc1ncn([C@H]2C[C@H](O)[C@@H](CO)O2)c(=O)n1 [Aza, 5-aza-2-deoxycytidine]",growth of HT-29 cells in culture,HT-29 cells [1],inhibits growth
same,expression of genes related to interferon (IFN) signaling,HT-29 cells [2],leads to specific expression of several genes related to interferon (IFN) signaling
